Results reported in US5837516A, “Subtilisin variants capable of cleaving substrates containing basic residues” (Genentech, Inc., priority 1995, dated 1998).
Changes are numbered by the printed parent chain. Residues, ends and D or L forms follow the SMILES beside them.

Assays:
[1] = molecular target: T1, subtilisin BPN' variant N62D/Y104D/G166D (SEQ ID NO: 75) (Bacillus amyloliquefaciens, UniProt P00782, G273D/N169D/Y211D); assay: Kinetic analysis, hydrolysis of succinyl-tetrapeptide-pNA substrates; assay type: biochemical; details: relative to succinyl-RAKR-pNA
T1 construct: the mature enzyme +1 to +275; made in house; host or cells: Bacillus subtilis BG2036 (protease-deficient), secreted
T1 sequence (P00782 108-382 N169D/Y211D/G273D): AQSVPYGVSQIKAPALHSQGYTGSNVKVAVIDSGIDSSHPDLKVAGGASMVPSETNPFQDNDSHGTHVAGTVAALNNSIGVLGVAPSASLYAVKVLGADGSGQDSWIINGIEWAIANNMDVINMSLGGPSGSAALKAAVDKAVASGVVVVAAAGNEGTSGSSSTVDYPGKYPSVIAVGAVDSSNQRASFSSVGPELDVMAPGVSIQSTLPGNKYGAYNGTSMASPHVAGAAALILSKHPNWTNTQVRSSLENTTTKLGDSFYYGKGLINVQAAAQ
Procedure: The mature N62D/Y104D/G166D variant was purified and analyzed for its ability to hydrolyze several tetrapeptide-pNA substrates.
Kinetic analysis of WT, N62D/G166D, and N62D/Y104D/G166D subtilisin BPN'
(§1) Subtilisins were assayed by measuring the initial rates of hydrolysis of p-nitroanilide tetrapeptide substrates in 0.4 mL 20 mM Tris-Cl pH 8.2, 4% (v/v) dimethyl sulfoxide at (25±0.2)° C. as described previously (Estell, D. A., Graycar, T. P., Miller, J. V., Powers, D. B., Burnier, J. P., Ng, P. G. and Wells, J. A. (1986)Science 233:659-663). Enzyme concentrations (E)0 were determined spectrophotometrically using E280 nm 0.1%=1.17 (Matsubara, H.; Kasper, C B.; Brown, D. M.; and Smith, E. L. (1965)J. Biol. Chem.,240:1125-1130.), and were typically 5-50 nM in reactions. Initial rates were determined for nine to twelve different substrate concentrations over the range of 0.001-2.0 mM. Plots of initial rates (v) versus substrate concentration (S) were fitted to the Michaelis-Menton equation, [formula] to determine the kinetic constants kcat and Km (Fersht, A. in "Enzyme Structure and Mechanism", Second edition, Freeman and Co., N.Y.) using the program Kaleidagraph (Synergy Software, Reading, Pa.).

subtilisin = molecular target: T2, subtilisin (Bacillus amyloliquefaciens, UniProt P00782); details: Estell et al. (1986) Science 233:659-663; cited from earlier work
T2 sequence (P00782 108-382): T1 sequence (P00782 108-382 N169D/Y211D/G273D) with D62N, D104Y, D166G

[2] = molecular target: T3, subtilisin BPN' variant G166D (Bacillus amyloliquefaciens, UniProt P00782, G273D); assay: Kinetic analysis, hydrolysis of suc-AAPX-pna substrates; assay type: biochemical; details: Lys P1 versus Phe P1 substrate
T3 construct: correct folding and maturation of subtilisin requires autolytic cleavage of its propeptide; made in house; host or cells: Bacillus subtilis BG2036 (protease-deficient), secreted
Source text: To probe the effects of the G166E and G166D on specificity at the P1 position we used substrates having the form suc-AAPX-pna (SEQ ID NO: 69) where X was either Lys (SEQ ID NO. 58), Arg (SEQ ID NO. 59), Phe (SEQ ID NO. 56), Met (SEQ ID NO. 60) or Gln (SEQ ID NO. 61). Whereas the wild-type enzyme preferred Phe>Met>Lys>Arg>Gln, the G166E preferred Lys^~ Phe>Arg^~ Met>Gln, and G166D preferred Lys>Phe^~ Arg^~ Met>Gln. Thus, both the acidic substitutions at position 166 caused a shift in preference for basic residues at the P1 site, as previously reported (Wells, J. A., Powers, D. B., Bott, R. R., Graycar, T. P.and Estell, D. A. (1987a), Proc. Natl. Acad. Sci. USA 84:1219-1223).
as §1, with “Plots of initial rates (v) versus substrate concentration (S) were fitted to the Michaelis-Menton equation, [formula] to determine the kinetic constants kcat and Km (Fersht, A. in "Enzyme Structure and Mechanism", Second edition, Freeman and Co., N.Y.) using the program Kaleidagraph (Synergy Software, Reading, Pa.).” left out

T3 sequence (P00782 108-382 G273D): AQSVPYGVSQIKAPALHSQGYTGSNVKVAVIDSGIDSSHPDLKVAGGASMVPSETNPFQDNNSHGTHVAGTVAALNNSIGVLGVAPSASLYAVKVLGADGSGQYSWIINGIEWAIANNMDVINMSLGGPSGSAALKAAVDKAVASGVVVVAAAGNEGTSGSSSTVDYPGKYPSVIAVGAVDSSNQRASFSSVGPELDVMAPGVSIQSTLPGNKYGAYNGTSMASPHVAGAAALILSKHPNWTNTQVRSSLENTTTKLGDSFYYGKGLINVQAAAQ

| SMILES | catalytic efficiency (kcat/Km), fold less efficiently hydrolyzed than succinyl-RAKR-pNA [1] | kcat /Km ratio (subtilisin) [M⁻¹ s⁻¹] | ratio of catalytic efficiencies, times faster cleaved than the Phe P1 substrate [2] |
| --- | --- | --- | --- |
| C[C@H](NC(=O)CCC(=O)O)C(=O)N[C@@H](C)C(=O)N1CCC[C@H]1C(=O)N[C@@H](Cc1ccccc1)C(=O)Nc1ccc([N+](=O)[O-])cc1 [succinyl-AAPF-pNA, N-succinyl-alanine-alanine-proline-phenylalanyl-p-nitroanalide] (HELM PEPTIDE1{[O=C(O)CCC(=O)[*:2]].A.A.P.F.[O=[N+]([O-])c1ccc(N[*:1])cc1]}$$$$V2.0) | 6×10^4 fold | 300000 | – |
| C[C@H](NC(=O)CCC(=O)O)C(=O)N[C@@H](C)C(=O)N1CCC[C@H]1C(=O)N[C@@H](CCCCN)C(=O)Nc1ccc([N+](=O)[O-])cc1 [Lys P1 substrate] (HELM PEPTIDE1{[O=C(O)CCC(=O)[*:2]].A.A.P.K.[O=[N+]([O-])c1ccc(N[*:1])cc1]}$$$$V2.0) | – | – | about 3 times |
